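These data come from cells grown in 96-well plates and exposed to compound for 48 hours at five concentrations. The concentration for full growth arrest is given as TGI.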
Test system: ACHN renal
Assay: NCI tumour cell line growth inhibition, 48 h

Row | Structure (SMILES) | TGI [µM]
1 | COc1ccc(NC(=O)C(=O)C(C(=O)c2ccccc2)C2OC(=O)c3ccccc32)c([N+](=O)[O-])c1 (configuration not stated) | > 100
2 | O=C(Nc1ccc(Cl)cc1)C(=O)C(C(=O)c1ccccc1-c1ccccc1)C1OC(=O)c2ccccc21 (configuration not stated) | 92.4

Test system: EKVX NSCLC
Assay: NCI tumour cell line growth inhibition, 48 h

Row | Structure (SMILES) | TGI [µM]
3 | COc1ccccc1N1C(=O)/C(=C/c2ccc(N(CCC#N)CCC#N)cc2C)N=C1c1cc([N+](=O)[O-])ccc1Cl | > 100
4 | CCCCCCCCC[C@@H]1CC(=O)OCC2OC(O[C@H](CCCCCCCCC)CC(=O)OCC3OC(O[C@H](CCCCCCCCC)CC(=O)OCC4OC(O1)C(O)C(O)C4O)C(O)C(O)C3O)C(O)C(O)C2O (some centres not stated) | 25.1
5 | COc1ccc(-c2onc(-c3ccc([N+](=O)[O-])cc3)c2C2=NCCN2)cc1 | > 100
6 | Cc1cc(Cl)ccc1NC(=O)CCCC(=O)C1CCCC1=O (configuration not stated) | > 100
7 | COc1ccc(NC(=O)C(=O)C(C(=O)c2ccccc2)C2OC(=O)c3ccccc32)c([N+](=O)[O-])c1 (configuration not stated) | > 100
8 | O=C(Nc1ccc(Cl)cc1)C(=O)C(C(=O)c1ccccc1-c1ccccc1)C1OC(=O)c2ccccc21 (configuration not stated) | 37.9

Test system: HCC-2998 colon
Assay: NCI tumour cell line growth inhibition, 48 h

Row | Structure (SMILES) | TGI [µM]
9 | COc1ccccc1N1C(=O)/C(=C/c2ccc(N(CCC#N)CCC#N)cc2C)N=C1c1cc([N+](=O)[O-])ccc1Cl | > 100
10 | CCCCCCCCC[C@@H]1CC(=O)OCC2OC(O[C@H](CCCCCCCCC)CC(=O)OCC3OC(O[C@H](CCCCCCCCC)CC(=O)OCC4OC(O1)C(O)C(O)C4O)C(O)C(O)C3O)C(O)C(O)C2O (some centres not stated) | 24.7
11 | COc1ccc(-c2onc(-c3ccc([N+](=O)[O-])cc3)c2C2=NCCN2)cc1 | > 100
12 | Cc1cc(Cl)ccc1NC(=O)CCCC(=O)C1CCCC1=O (configuration not stated) | > 100
13 | COc1ccc(NC(=O)C(=O)C(C(=O)c2ccccc2)C2OC(=O)c3ccccc32)c([N+](=O)[O-])c1 (configuration not stated) | > 100
14 | O=C(Nc1ccc(Cl)cc1)C(=O)C(C(=O)c1ccccc1-c1ccccc1)C1OC(=O)c2ccccc21 (configuration not stated) | 33.8

Test system: SK-MEL-5 melanoma
Assay: NCI tumour cell line growth inhibition, 48 h

Row | Structure (SMILES) | TGI [µM]
15 | COc1c2nc(CCl)[nH]c(=O)c2c(OC)c2nc(CCl)[nH]c(=O)c12 | > 100
16 | COc1ccccc1N1C(=O)/C(=C/c2ccc(N(CCC#N)CCC#N)cc2C)N=C1c1cc([N+](=O)[O-])ccc1Cl | > 100
17 | CCCCCCCCC[C@@H]1CC(=O)OCC2OC(O[C@H](CCCCCCCCC)CC(=O)OCC3OC(O[C@H](CCCCCCCCC)CC(=O)OCC4OC(O1)C(O)C(O)C4O)C(O)C(O)C3O)C(O)C(O)C2O (some centres not stated) | 25.5
18 | COc1ccc(-c2onc(-c3ccc([N+](=O)[O-])cc3)c2C2=NCCN2)cc1 | > 100
19 | Cc1cc(Cl)ccc1NC(=O)CCCC(=O)C1CCCC1=O (configuration not stated) | > 100
20 | COc1ccc(NC(=O)C(=O)C(C(=O)c2ccccc2)C2OC(=O)c3ccccc32)c([N+](=O)[O-])c1 (configuration not stated) | > 100
21 | O=C(Nc1ccc(Cl)cc1)C(=O)C(C(=O)c1ccccc1-c1ccccc1)C1OC(=O)c2ccccc21 (configuration not stated) | 32

Test system: SN12C renal
Assay: NCI tumour cell line growth inhibition, 48 h

Row | Structure (SMILES) | TGI [µM]
22 | COc1c2nc(CCl)[nH]c(=O)c2c(OC)c2nc(CCl)[nH]c(=O)c12 | > 100
23 | COc1ccccc1N1C(=O)/C(=C/c2ccc(N(CCC#N)CCC#N)cc2C)N=C1c1cc([N+](=O)[O-])ccc1Cl | > 100
24 | CCCCCCCCC[C@@H]1CC(=O)OCC2OC(O[C@H](CCCCCCCCC)CC(=O)OCC3OC(O[C@H](CCCCCCCCC)CC(=O)OCC4OC(O1)C(O)C(O)C4O)C(O)C(O)C3O)C(O)C(O)C2O (some centres not stated) | 28
25 | COc1ccc(-c2onc(-c3ccc([N+](=O)[O-])cc3)c2C2=NCCN2)cc1 | > 100
26 | Cc1cc(Cl)ccc1NC(=O)CCCC(=O)C1CCCC1=O (configuration not stated) | > 100
27 | COc1ccc(NC(=O)C(=O)C(C(=O)c2ccccc2)C2OC(=O)c3ccccc32)c([N+](=O)[O-])c1 (configuration not stated) | > 100
28 | O=C(Nc1ccc(Cl)cc1)C(=O)C(C(=O)c1ccccc1-c1ccccc1)C1OC(=O)c2ccccc21 (configuration not stated) | 62.4

Test system: SNB-75 CNS
Assay: NCI tumour cell line growth inhibition, 48 h

Row | Structure (SMILES) | TGI [µM]
29 | COc1c2nc(CCl)[nH]c(=O)c2c(OC)c2nc(CCl)[nH]c(=O)c12 | > 100
30 | COc1ccccc1N1C(=O)/C(=C/c2ccc(N(CCC#N)CCC#N)cc2C)N=C1c1cc([N+](=O)[O-])ccc1Cl | > 100
31 | CCCCCCCCC[C@@H]1CC(=O)OCC2OC(O[C@H](CCCCCCCCC)CC(=O)OCC3OC(O[C@H](CCCCCCCCC)CC(=O)OCC4OC(O1)C(O)C(O)C4O)C(O)C(O)C3O)C(O)C(O)C2O (some centres not stated) | 22.5
32 | COc1ccc(-c2onc(-c3ccc([N+](=O)[O-])cc3)c2C2=NCCN2)cc1 | 44
33 | COc1ccc(NC(=O)C(=O)C(C(=O)c2ccccc2)C2OC(=O)c3ccccc32)c([N+](=O)[O-])c1 (configuration not stated) | > 100
34 | O=C(Nc1ccc(Cl)cc1)C(=O)C(C(=O)c1ccccc1-c1ccccc1)C1OC(=O)c2ccccc21 (configuration not stated) | 93.3

Test system: SF-539 CNS
Assay: NCI tumour cell line growth inhibition, 48 h

Row | Structure (SMILES) | TGI [µM]
35 | COc1c2nc(CCl)[nH]c(=O)c2c(OC)c2nc(CCl)[nH]c(=O)c12 | > 100
36 | COc1ccccc1N1C(=O)/C(=C/c2ccc(N(CCC#N)CCC#N)cc2C)N=C1c1cc([N+](=O)[O-])ccc1Cl | > 100
37 | CCCCCCCCC[C@@H]1CC(=O)OCC2OC(O[C@H](CCCCCCCCC)CC(=O)OCC3OC(O[C@H](CCCCCCCCC)CC(=O)OCC4OC(O1)C(O)C(O)C4O)C(O)C(O)C3O)C(O)C(O)C2O (some centres not stated) | 23.2
38 | COc1ccc(-c2onc(-c3ccc([N+](=O)[O-])cc3)c2C2=NCCN2)cc1 | > 100
39 | Cc1cc(Cl)ccc1NC(=O)CCCC(=O)C1CCCC1=O (configuration not stated) | > 100
40 | COc1ccc(NC(=O)C(=O)C(C(=O)c2ccccc2)C2OC(=O)c3ccccc32)c([N+](=O)[O-])c1 (configuration not stated) | > 100
41 | O=C(Nc1ccc(Cl)cc1)C(=O)C(C(=O)c1ccccc1-c1ccccc1)C1OC(=O)c2ccccc21 (configuration not stated) | 58.4

Test system: SNB-78 CNS
Assay: NCI tumour cell line growth inhibition, 48 h

Row | Structure (SMILES) | TGI [µM]
42 | COc1c2nc(CCl)[nH]c(=O)c2c(OC)c2nc(CCl)[nH]c(=O)c12 | > 100
43 | COc1ccccc1N1C(=O)/C(=C/c2ccc(N(CCC#N)CCC#N)cc2C)N=C1c1cc([N+](=O)[O-])ccc1Cl | > 100
44 | CCCCCCCCC[C@@H]1CC(=O)OCC2OC(O[C@H](CCCCCCCCC)CC(=O)OCC3OC(O[C@H](CCCCCCCCC)CC(=O)OCC4OC(O1)C(O)C(O)C4O)C(O)C(O)C3O)C(O)C(O)C2O (some centres not stated) | 34.6
45 | COc1ccc(-c2onc(-c3ccc([N+](=O)[O-])cc3)c2C2=NCCN2)cc1 | > 100
46 | Cc1cc(Cl)ccc1NC(=O)CCCC(=O)C1CCCC1=O (configuration not stated) | > 100
47 | COc1ccc(NC(=O)C(=O)C(C(=O)c2ccccc2)C2OC(=O)c3ccccc32)c([N+](=O)[O-])c1 (configuration not stated) | > 100
